#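 Exposure lasted 48 hours, with cells grown in 96-well plates and compounds tested at five concentrations. GI50 is the concentration that inhibits growth by half. Definition used: TGI = concentration required for complete inhibition of growth.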
# How the values were obtained:
# Test in all cases: inhibition of tumour cell growth, NCI panel, 48 h
# 786-0 renal = system: 786-0 renal
# A498 renal = system: A498 renal
# A549 NSCLC = system: A549 NSCLC
# ACHN renal = system: ACHN renal
# BT-549 breast = system: BT-549 breast
# CAKI-1 renal = system: CAKI-1 renal
# CCRF-CEM leukemia = system: CCRF-CEM leukemia
# DU-145 prostate = system: DU-145 prostate
# EKVX NSCLC = system: EKVX NSCLC
# HCT-116 colon = system: HCT-116 colon
# HCT-15 colon = system: HCT-15 colon
# HOP-62 NSCLC = system: HOP-62 NSCLC
# HOP-92 NSCLC = system: HOP-92 NSCLC
# HS 578T breast = system: HS 578T breast
# HT29 colon = system: HT29 colon
# IGROV1 ovarian = system: IGROV1 ovarian
# K-562 leukemia = system: K-562 leukemia
# KM12 colon = system: KM12 colon
# LOX IMVI melanoma = system: LOX IMVI melanoma
# M14 melanoma = system: M14 melanoma
# MALME-3M melanoma = system: MALME-3M melanoma
# MCF7 breast = system: MCF7 breast
# MDA-MB-231 breast = system: MDA-MB-231 breast
# MDA-MB-435 = system: MDA-MB-435
# MOLT-4 leukemia = system: MOLT-4 leukemia
# NCI-H226 lung = system: NCI-H226 lung
# NCI-H23 lung = system: NCI-H23 lung
# NCI-H460 lung = system: NCI-H460 lung
# NCI-H522 lung = system: NCI-H522 lung
# NCI/ADR-RES ovarian = system: NCI/ADR-RES ovarian
# OVCAR-3 ovarian = system: OVCAR-3 ovarian
# OVCAR-4 ovarian = system: OVCAR-4 ovarian
# OVCAR-5 ovarian = system: OVCAR-5 ovarian
# OVCAR-8 ovarian = system: OVCAR-8 ovarian
# PC-3 prostate = system: PC-3 prostate
# RPMI-8226 leukemia = system: RPMI-8226 leukemia
# RXF 393 renal = system: RXF 393 renal
# SF-268 CNS = system: SF-268 CNS
# SF-295 CNS = system: SF-295 CNS
# SF-539 CNS = system: SF-539 CNS
# SK-MEL-2 melanoma = system: SK-MEL-2 melanoma
# SK-MEL-28 melanoma = system: SK-MEL-28 melanoma
# SK-MEL-5 melanoma = system: SK-MEL-5 melanoma
# SK-OV-3 ovarian = system: SK-OV-3 ovarian
# SN12C renal = system: SN12C renal
# SNB-19 CNS = system: SNB-19 CNS
# SNB-75 CNS = system: SNB-75 CNS
# SR leukemia = system: SR leukemia
# SW-620 colon = system: SW-620 colon
# T-47D breast = system: T-47D breast
# TK-10 renal = system: TK-10 renal
# U251 CNS = system: U251 CNS
# UACC-257 melanoma = system: UACC-257 melanoma
# UACC-62 melanoma = system: UACC-62 melanoma
# UO-31 renal = system: UO-31 renal
# COLO 205 colon = system: COLO 205 colon
# HCC-2998 colon = system: HCC-2998 colon
smiles,measurement,setting,value
CC(Cc1ccc(O)cc1)NCC(O)c1ccc(O)c(O)c1 (stereo not given),TGI,786-0 renal,> 100 µM
same,TGI,A498 renal,> 100 µM
same,TGI,A549 NSCLC,> 100 µM
same,TGI,ACHN renal,> 100 µM
same,TGI,BT-549 breast,> 100 µM
same,TGI,CAKI-1 renal,> 100 µM
same,TGI,CCRF-CEM leukemia,> 100 µM
same,TGI,DU-145 prostate,> 100 µM
same,TGI,EKVX NSCLC,> 100 µM
same,TGI,HCT-116 colon,> 100 µM
same,TGI,HCT-15 colon,> 100 µM
same,TGI,HOP-62 NSCLC,> 100 µM
same,TGI,HOP-92 NSCLC,> 100 µM
same,TGI,HS 578T breast,> 100 µM
same,TGI,HT29 colon,> 100 µM
same,TGI,IGROV1 ovarian,> 100 µM
same,TGI,K-562 leukemia,> 100 µM
same,TGI,KM12 colon,> 100 µM
same,TGI,LOX IMVI melanoma,> 100 µM
same,TGI,M14 melanoma,> 100 µM
same,TGI,MALME-3M melanoma,> 100 µM
same,TGI,MCF7 breast,> 100 µM
same,TGI,MDA-MB-231 breast,> 100 µM
same,TGI,MDA-MB-435,> 100 µM
same,TGI,MOLT-4 leukemia,> 100 µM
same,TGI,NCI-H226 lung,> 100 µM
same,TGI,NCI-H23 lung,> 100 µM
same,TGI,NCI-H460 lung,> 100 µM
same,TGI,NCI-H522 lung,> 100 µM
same,TGI,NCI/ADR-RES ovarian,> 100 µM
same,TGI,OVCAR-3 ovarian,> 100 µM
same,TGI,OVCAR-4 ovarian,> 100 µM
same,TGI,OVCAR-5 ovarian,> 100 µM
same,TGI,OVCAR-8 ovarian,> 100 µM
same,TGI,PC-3 prostate,> 100 µM
same,TGI,RPMI-8226 leukemia,> 100 µM
same,TGI,RXF 393 renal,> 100 µM
same,TGI,SF-268 CNS,> 100 µM
same,TGI,SF-295 CNS,> 100 µM
same,TGI,SF-539 CNS,> 100 µM
same,TGI,SK-MEL-2 melanoma,> 100 µM
same,TGI,SK-MEL-28 melanoma,> 100 µM
same,TGI,SK-MEL-5 melanoma,> 100 µM
same,TGI,SK-OV-3 ovarian,> 100 µM
same,TGI,SN12C renal,> 100 µM
same,TGI,SNB-19 CNS,> 100 µM
same,TGI,SNB-75 CNS,> 100 µM
same,TGI,SR leukemia,> 100 µM
same,TGI,SW-620 colon,> 100 µM
same,TGI,T-47D breast,> 100 µM
same,TGI,TK-10 renal,> 100 µM
same,TGI,U251 CNS,> 100 µM
same,TGI,UACC-257 melanoma,> 100 µM
same,TGI,UACC-62 melanoma,> 100 µM
same,TGI,UO-31 renal,> 100 µM
Cc1c(-c2ccc(O)c(O)c2)oc(=O)c2c(O)cc(O)cc12,GI50,786-0 renal,14.4 µM
same,TGI,786-0 renal,> 100 µM
same,GI50,A498 renal,20.7 µM
same,TGI,A498 renal,56.8 µM
same,GI50,A549 NSCLC,19.4 µM
same,TGI,A549 NSCLC,> 100 µM
same,GI50,ACHN renal,21.3 µM
same,TGI,ACHN renal,> 100 µM
same,GI50,BT-549 breast,6.78 µM
same,TGI,BT-549 breast,43.2 µM
same,GI50,CAKI-1 renal,11.3 µM
same,TGI,CAKI-1 renal,46.5 µM
same,GI50,CCRF-CEM leukemia,2.83 µM
same,TGI,CCRF-CEM leukemia,> 100 µM
same,GI50,COLO 205 colon,67.4 µM
same,TGI,COLO 205 colon,> 100 µM
same,GI50,DU-145 prostate,28.8 µM
same,TGI,DU-145 prostate,> 100 µM
same,GI50,EKVX NSCLC,15.7 µM
same,TGI,EKVX NSCLC,63.9 µM
same,GI50,HCC-2998 colon,31.5 µM
same,TGI,HCC-2998 colon,88.6 µM
same,GI50,HCT-116 colon,14 µM
same,TGI,HCT-116 colon,> 100 µM
same,GI50,HCT-15 colon,9.66 µM
same,TGI,HCT-15 colon,> 100 µM
same,GI50,HOP-62 NSCLC,18.2 µM
same,TGI,HOP-62 NSCLC,61.5 µM
same,GI50,HOP-92 NSCLC,17.2 µM
same,TGI,HOP-92 NSCLC,> 100 µM
same,GI50,HS 578T breast,9.69 µM
same,TGI,HS 578T breast,91.9 µM
same,GI50,HT29 colon,54.1 µM
same,TGI,HT29 colon,> 100 µM
same,GI50,IGROV1 ovarian,2.3 µM
same,TGI,IGROV1 ovarian,6.34 µM
same,GI50,K-562 leukemia,19.5 µM
same,TGI,K-562 leukemia,> 100 µM
same,GI50,KM12 colon,12.2 µM
same,TGI,KM12 colon,54.7 µM
same,GI50,LOX IMVI melanoma,13.1 µM
same,TGI,LOX IMVI melanoma,> 100 µM
same,GI50,M14 melanoma,8.07 µM
same,TGI,M14 melanoma,68.3 µM
same,GI50,MALME-3M melanoma,1.16 µM
same,TGI,MALME-3M melanoma,10.3 µM
same,GI50,MCF7 breast,39.1 µM
same,TGI,MCF7 breast,> 100 µM
same,GI50,MDA-MB-231 breast,86.8 µM
same,TGI,MDA-MB-231 breast,> 100 µM
same,GI50,MDA-MB-435,2.17 µM
same,TGI,MDA-MB-435,6.14 µM
same,GI50,MOLT-4 leukemia,42.8 µM
same,TGI,MOLT-4 leukemia,> 100 µM
same,GI50,NCI-H226 lung,21.3 µM
same,TGI,NCI-H226 lung,> 100 µM
same,GI50,NCI-H460 lung,12.1 µM
same,TGI,NCI-H460 lung,> 100 µM
same,GI50,NCI-H522 lung,5.08 µM
same,TGI,NCI-H522 lung,> 100 µM
same,GI50,NCI/ADR-RES ovarian,14.1 µM
same,TGI,NCI/ADR-RES ovarian,> 100 µM
same,GI50,OVCAR-3 ovarian,11.1 µM
same,TGI,OVCAR-3 ovarian,57.8 µM
same,GI50,OVCAR-4 ovarian,46.5 µM
same,TGI,OVCAR-4 ovarian,> 100 µM
same,GI50,OVCAR-5 ovarian,42.9 µM
same,TGI,OVCAR-5 ovarian,> 100 µM
same,GI50,OVCAR-8 ovarian,17.9 µM
same,TGI,OVCAR-8 ovarian,90 µM
same,GI50,PC-3 prostate,29.5 µM
same,TGI,PC-3 prostate,> 100 µM
same,GI50,RPMI-8226 leukemia,7.69 µM
same,TGI,RPMI-8226 leukemia,45.3 µM
same,GI50,RXF 393 renal,49.8 µM
same,TGI,RXF 393 renal,> 100 µM
same,GI50,SF-268 CNS,11.1 µM
same,TGI,SF-268 CNS,> 100 µM
same,GI50,SF-295 CNS,7.52 µM
same,TGI,SF-295 CNS,28.9 µM
same,GI50,SF-539 CNS,13.2 µM
same,TGI,SF-539 CNS,63.7 µM
same,GI50,SK-MEL-2 melanoma,26 µM
same,TGI,SK-MEL-2 melanoma,> 100 µM
same,GI50,SK-MEL-28 melanoma,19.8 µM
same,TGI,SK-MEL-28 melanoma,> 100 µM
same,GI50,SK-MEL-5 melanoma,6.59 µM
same,TGI,SK-MEL-5 melanoma,30.8 µM
same,GI50,SK-OV-3 ovarian,62.7 µM
same,TGI,SK-OV-3 ovarian,> 100 µM
same,GI50,SN12C renal,14.5 µM
same,TGI,SN12C renal,59.1 µM
same,GI50,SNB-19 CNS,45.6 µM
same,TGI,SNB-19 CNS,> 100 µM
same,GI50,SR leukemia,4.52 µM
same,TGI,SR leukemia,> 100 µM
same,GI50,SW-620 colon,4.92 µM
same,TGI,SW-620 colon,> 100 µM
same,GI50,T-47D breast,88.7 µM
same,TGI,T-47D breast,> 100 µM
same,GI50,TK-10 renal,7.97 µM
same,TGI,TK-10 renal,36 µM
same,GI50,U251 CNS,9.67 µM
same,TGI,U251 CNS,> 100 µM
same,GI50,UACC-257 melanoma,14.4 µM
same,TGI,UACC-257 melanoma,53.3 µM
same,GI50,UACC-62 melanoma,8.45 µM
same,TGI,UACC-62 melanoma,45.1 µM
same,GI50,UO-31 renal,6.9 µM
same,TGI,UO-31 renal,> 100 µM
